Key:
RARγ [1] = target: T1, RARγ (Homo sapiens, UniProt P13631); assay: RAR binding, RARγ; details: Kd from IC50 by Cheng-Prussof equation
T1 sequence (P13631 1-454): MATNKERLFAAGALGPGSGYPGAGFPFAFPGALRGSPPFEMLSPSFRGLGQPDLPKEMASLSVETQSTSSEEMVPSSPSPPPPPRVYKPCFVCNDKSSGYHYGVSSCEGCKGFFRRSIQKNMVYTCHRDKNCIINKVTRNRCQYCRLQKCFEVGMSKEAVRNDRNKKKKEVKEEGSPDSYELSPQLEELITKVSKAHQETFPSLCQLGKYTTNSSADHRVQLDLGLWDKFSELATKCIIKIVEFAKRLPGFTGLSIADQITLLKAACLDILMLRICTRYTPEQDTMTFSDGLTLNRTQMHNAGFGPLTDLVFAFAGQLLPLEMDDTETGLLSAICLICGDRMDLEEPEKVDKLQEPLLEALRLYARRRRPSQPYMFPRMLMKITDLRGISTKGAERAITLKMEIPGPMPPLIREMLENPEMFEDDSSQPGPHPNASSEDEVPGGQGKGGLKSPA
Procedure: Non-specific binding was defined as that binding remaining in the presence of 500 nM of the appropriate unlabelled compound. At the end of the incubation period, bound from free ligand were separated. The amount of bound tritiated retinoids was determined by liquid scintillation counting of an aliquot (700 μL) of the supernatant fluid or the hydroxylapatite pellet.
After correcting for non-specific binding, IC50 values were determined. […] The IC50 value was determined graphically from a log-logit plot of the data. The Kd values were determined by application of the Cheng-Prussof equation to the IC50 values, the labeled ligand concentration and the Kd of the labeled ligand.

RARβ = target: T2, RARβ (Homo sapiens, UniProt P10826); assay: co-transfection assay, antagonist activity on RARβ; assay type: cell-based; set-up: expressed in transfected cells; host or cells: CV-1 cells (African green monkey kidney); details: CV-1 cells, in presence of known RAR agonist TTNPB; for IC50: read-out: IC50 antagonist potency, RARβ
T2 sequence (P10826 1-448 isoform P10826-2): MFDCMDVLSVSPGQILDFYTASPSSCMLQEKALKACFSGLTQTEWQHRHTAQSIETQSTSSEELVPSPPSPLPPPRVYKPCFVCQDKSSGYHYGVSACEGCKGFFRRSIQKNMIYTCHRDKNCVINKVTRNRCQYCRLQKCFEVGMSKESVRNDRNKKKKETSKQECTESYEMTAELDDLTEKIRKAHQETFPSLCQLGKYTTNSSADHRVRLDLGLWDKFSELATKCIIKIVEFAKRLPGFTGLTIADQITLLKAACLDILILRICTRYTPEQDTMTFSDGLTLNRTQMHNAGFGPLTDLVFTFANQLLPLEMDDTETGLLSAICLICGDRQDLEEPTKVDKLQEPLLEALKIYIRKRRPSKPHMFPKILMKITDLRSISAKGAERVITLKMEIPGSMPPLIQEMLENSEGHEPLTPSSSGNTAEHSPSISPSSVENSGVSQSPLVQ
Excerpt: (§1) This assay is described in further detail in U.S. Pat. Nos. 4,981,784 and 5,071,773, the disclosures of which are incorporated herein by reference.
(§2) In the co-transfection assay, a cloned cDNA for an IR (e.g., human RARα:, RARβ, RXRγ) under the control of a constitutive promoter (e.g., the SV 40 promoter) is introduced by transfection (a procedure to induce cells to take up foreign genes) into a background cell substantially devoid of endogenous IRs. This introduced gene directs the recipient cells to make the IR protein of interest. A second gene is also introduced (co-transfected) into the same cells in conjunction with the IR gene. This second gene, comprising the cDNA for a reporter protein, such as firefly luciferase (LUC), is controlled by an appropriate hormone responsive promoter containing a hormone response element (HRE). This reporter plasmid functions as a reporter for the transcription-modulating activity of the target IR. Thus, the reporter acts as a surrogate for the products (mRNA then protein) normally expressed by a gene under control of the target receptor and its native hormone.
(§3) The co-transfection assay can detect small molecule agonists or antagonists of target IRs. Exposing the transfected cells to an agonist ligand compound increases reporter activity in the transfected cells. This activity can be conveniently measured, e.g., by increasing luciferase production, which reflects compound-dependent, IR-mediated increases in reporter transcription. To detect antagonists, the co-transfection assay is carried out in the presence of a constant concentration of an agonist to the target IR (e.g., all-trans retinoic acid for RARα) known to induce a defined reporter signal. Increasing concentrations of a suspected antagonist will decrease the reporter signal (e.g., luciferase production). The co-transfection assay is therefore useful to detect both agonists and antagonists of specific IRs. Furthermore, it determines not only whether a compound interacts with a particular IR, but whether this interaction mimics (agonizes) or blocks (antagonizes) the effects of the native regulatory molecules on target gene expression, as well as the specificity and strength of this interaction.
CV-1 cells (African green monkey kidney fibroblasts) were cultured in the presence of Dulbecco's Modified Eagle Medium (DMEM) supplemented with 10% charcoal resin-stripped fetal bovine serum then transferred to 96-well microtiter plates one day prior to transfection.
To determine RAR and/or RXR agonist activity of the compounds of the present invention, the CV-1 cells were transiently transfected by calcium phosphate coprecipitation according to the procedure of Berger et al., 41 J. Steroid Biochem. Mol. Biol., 733 (1992) with the following receptor expressing plasmids: pRShRARα: Giguere et al., 330 Nature, 624 (1987); pRShRARβ and pRShRARγ, Ishikawa et al., 4 Mol. Endocrin., 837 (1990); pRShRXRα, Mangelsdorf et al., 345 Nature, 224 (1990); and pRSmRXRβ and pRSmRXRγ, Mangelsdorf et al., 6 Genes & Devel., 329 (1992), the disclosures of which are herein incorporated by reference. Each of these receptor expressing plasmids was co-transfected at a concentration of 5 ng/well, along with a basal reporter plasmid at 100 ng/well, the internal control plasmid pRS-β-Gal at 50 ng/well and filler DNA, pGEM at 45 ng/well.
The basal reporter plasmid D-MTV-LUC (Hollenberg and Evans, 55 Cell, 899 (1988), the disclosure of which is herein incorporated by reference) containing two copies of the TRE-palindromic response element described in Umesono et al., 336 Nature, 262 (1988), the disclosure of which is herein incorporated by reference, was used in transfections for the RARs, and the reporter plasmid CRBPIIFKLUC, which contains an RXRE (retinoid X receptor response element, as described in Mangelsdorf et al., 66 Cell, 555 (1991), the disclosure of which is herein incorporated by reference), was used in transfections for the RXRs.

RARγ [2] = target: T1, RARγ; assay: co-transfection assay, agonist activity on RARγ; assay type: cell-based; set-up: expressed in transfected cells; host or cells: CV-1 cells (African green monkey kidney); details: CV-1 cells; read-out: EC50 agonist potency, RARγ
Excerpt: as §1, §2, §3
CV-1 cells (African green monkey kidney fibroblasts) were cultured in the presence of Dulbecco's Modified Eagle Medium (DMEM) supplemented with 10% charcoal resin-stripped fetal bovine serum then transferred to 96-well microtiter plates one day prior to transfection. […]

SMILES | Kd (RARγ [1]) | efficacy of antagonist, % of maximal inhibition, RARβ (in parentheses after IC50) (RARβ) | IC50 (RARβ) | EC50 (RARγ [2])
CCCCOc1c(C(C)(C)C)cc(/C(C)=C/C=C/C(C)=C/C(=O)O)cc1C(C)(C)C [Compound 7, 2E, 4E, 6E-[7-(3,5-Di-t-butyl-4-n-butoxyphenyl)-3-methyl]-octa-2,4,6-trienoic acid] | 17 nM | 85% | 4 nM | > 10 µM
CCCOc1c(C(C)(C)C)cc(/C(C)=C/C=C/C(C)=C/C(=O)O)cc1C(C)(C)C [Compound 8, 2E, 4E, 6E-[7-(3,5-Di-t-butyl-4-n-propoxyphenyl)-3-methyl]-octa-2,4,6-trienoic acid] | 4 nM | 85% | 1 nM | > 10 µM
CCCCCOc1c(C(C)(C)C)cc(/C(C)=C/C=C/C(C)=C/C(=O)O)cc1C(C)(C)C [Compound 9, 2E, 4E, 6E-[7-(3,5-Di-t-butyl-4-n-pentoxyphenyl)-3-methyl]-octa-2,4,6-trienoic acid] | 14 nM | 86% | 17 nM | > 10 µM
C=C(c1ccccc1)c1cc(/C(C)=C/C=C/C(C)=C/C(=O)O)cc(C(C)(C)C)c1 [Compound 17, (2E,4E,6E)-7-[3-t-butyl-5-(1-phenyl-vinyl)-phenyl]-3-methyl-octa-2,4,6-trienoic acid] | 14 nM | 90% | 5 nM | > 10 µM

From US5998654A, “Retinoic acid receptor antagonist compounds and methods” (Ligand Pharmaceuticals Incorporated, priority 1997, dated 1999)
